Reference: a melting point compilation (Tetko et al.; mined from patent text by program, amines drawn as free bases though some values may be those of a salt)

SMILES | melting point
CCCCCc1ccc(C(O)(c2c(C)cc(C)c(C)c2OC)C(C)C)cc1 (stereo not given) | 55 °C
COC(=O)C12COc3cc(C(F)(F)F)ccc3C1=NN(C(=O)N(C)c1ccc(C(F)(F)F)cc1)C2 (stereo not given) | 105 to 111 °C
NCC1Cc2cccc(-c3ccc(F)c(Cl)c3)c2O1 (stereo not given) | > 210 °C
CC(Cl)c1nnc2n1-c1ccc(Cl)cc1C(c1ccccc1)=NC2 (stereo not given) | 154 to 156 °C
Cc1c(C)n(CCc2ccccc2)c(C)c(C(=O)Nc2ccccc2)c1=O | 191 to 193 °C
N#CC(c1cccc(F)c1)N1CCOCC1 (stereo not given) | 74 to 75 °C
Cc1cccc(NS(=O)(=O)c2ccc(N3CCNC3=O)cc2)c1C | 231 to 232 °C
COC(=O)c1cccc(C2C(C#N)=C(N)Oc3c2ccc2cccnc32)c1 (stereo not given) | 198 to 200 °C
CC1CCN(c2ccc(Nc3ncc4c(n3)S/C(=C/c3ccc([N+](=O)[O-])cc3)C(=O)N4)cc2)CC1 | 280 to 282 °C
CC(=O)Cc1nc(CN2CCCCC2)no1 | 66 to 67 °C
O=S(=O)(c1ccccc1)c1c[nH]c2c(C3CCNCC3)cccc12 | 186 to 190 °C
CCN(CC)CCOCCC1CCCCN1C(=O)N1c2ccccc2NC(=O)c2csc(C)c21 (stereo not given) | 105 to 107 °C
CC(C)C(CO)CS(N)(=O)=O (stereo not given) | 83 to 84 °C
O=C(CCCc1ccccc1)N[C@@H](Cc1ccccc1)C(=O)O | 178 °C
CC1(C)C(=O)Nc2cc3[nH]c(-c4cnccn4)nc3cc21 | > 300 °C
CC(=O)OCC(C)(C)c1ccc(S(=O)(=O)Nc2ncnc(Cl)c2-c2ccc(C)cc2)cc1 | 188 to 189 °C
O=CC(=C(c1ccc(F)cc1)c1ccc(F)cc1)n1cnnn1 | 161 °C
N#Cc1cnn(-c2ccc(Cl)c(Cl)c2Cl)c1N1CCCC1=O | 160 to 161 °C
NS(=O)(=O)c1ccccc1-c1ccc(Cn2c(-c3ccccc3)nc(Cl)c2C=O)cc1 | 215 °C
O=C(O)CCCn1ccn(C2CCc3ccccc3C2)c1=S (stereo not given) | 156 to 158 °C
COc1cc(C2(O)CCN(C(=O)OC(C)(C)C)CC2)ccc1Nc1ncc2ccc(-c3ccccc3N(C)S(C)(=O)=O)n2n1 | 111 to 112 °C
Cc1ccc(-c2cn(-c3ccc4c(c3)c3ccccc3n4C)c(-c3ccc(C)s3)n2)s1 | 248 to 255 °C
COC(=O)c1ccc(Cn2nc(-c3ccc(OC)cc3)c(-c3ccc(OC)cc3)cc2=O)cc1 | 186 to 187 °C
CCOc1ccc2nc(N3CCN(c4nc(N)c5cc(OC)c(OC)cc5n4)CC3)nc-2cc1 | > 250 °C
COc1nccnc1C1(Cl)CN2CCC1CC2 (stereo not given) | 59 to 60 °C

SMILES | melting point
CS(=O)(=O)Nc1ccc2c(c1)C(=O)CC1(CCN(CCc3ccc(N)c(N)c3)CC1)O2 | 109 to 112 °C
Cc1noc(C)c1C(=O)Nc1ccc(-n2nc(C(F)(F)F)cc2C(F)(F)F)c(C(F)(F)F)c1 | 61 to 63 °C
COC(=O)C1CC(O)CN1C(=O)c1ccc(OC)cc1 (stereo not given) | 92 °C
Nc1cc(C(F)(F)F)cnc1Cl | 94 to 95 °C
O=Cc1cccc(Sc2ccc(O)cc2)c1O | 97 to 98 °C
FC(F)(F)c1cccc(-c2nccc3nncn23)c1 | 145 to 146 °C
COCSc1nccn1-c1cccc(C2=Nc3ccc(-c4ccccc4F)cc3NC(=O)C2)c1 | 189 to 190 °C
NCC1(O)CCN(CC2OCCO2)CC1 | 137 °C
Cc1nc(C)c(Cl)c(NCc2nccc(OCCCCN3CCNCC3)c2C)n1 | 140 to 144 °C
COC(=O)c1ccc(-c2nc3c(OC(C)=O)cccc3s2)cc1 | 144 to 146 °C
COc1ccc2sc(C(=O)OCc3ccccc3)c(OCc3ccccc3)c2c1 | 66 to 67 °C
CN1C(=O)Nc2cc(Cl)c(Cl)cc2C1(O)C(=O)NC(N)=S (stereo not given) | 225 to 228 °C
COc1cc(OCC(=O)O)c(C)cc1SCc1ccc(-c2ccc(Cl)c(Cl)c2)cc1 | 161 to 162 °C
C[C@H]1C=CC(Sc2ccccc2)=CC[C@H]1O | 54 to 56 °C
Cc1c(C=NO)c2cc(F)ccc2n1-c1ccc(O)cc1 | 162 to 163 °C
C=Cc1[nH]c(=O)c2c(ccc3nc(Nc4c(Cl)cccc4Cl)n(C)c32)c1C | > 300 °C
Cc1ccc(N2C(=O)C(O)=C(C(=O)c3ccc(C(C)C)cc3)C2c2ccc(-c3nnc(C)o3)cc2)nn1 (stereo not given) | 293 °C
CCOC(=O)c1ccc(NC(=O)C=Cc2ccc(OC)cc2)cc1 | 163 to 166 °C
COc1ccc(Cc2n[nH]c3c2c(=O)n(-c2ccccc2)c2ncccc32)c(OC)c1 | 266 to 267 °C
COc1ccc(NC=O)cn1 | 81 to 83 °C
CN(C)CCCn1c(-c2ccc(C#N)cc2)cc2c1CCCCC2 | 96 to 97 °C
CC(C)(CO)c1ccc(C(=O)O)cc1 | 154 to 156 °C
O=CC1CCSc2[nH]c3ccccc3c21 (stereo not given) | 60 to 65 °C
O=C(O)c1cccc(OCCCCCCc2cccc(OCc3ccccc3)c2OCc2ccccc2)c1 | 72 °C
COc1cc2c(c(Cl)c1Cl)C(=O)C(c1ccc(Br)cc1)C2 (stereo not given) | 202 to 203 °C

SMILES | melting point
CC(C)(C)CC(C)(C)Nc1nc(NC(C)(C)CC(C)(C)C)nc(N2CC3CCC(CC3)C2)n1 | 126 to 127 °C
CN(Cc1ncc(C(F)(F)F)cc1Cl)C(=O)c1c(Cl)cccc1Cl | 83 to 84 °C
O=c1[nH]cnc2c1ncn2CCO | 274 °C
CCCCS(=O)(=O)Nc1ccccc1OCc1ccc2ccccc2n1 | 93 to 94 °C
N#Cc1cc2c(c(C(=O)O)c1-c1ccccc1)NCCC2C(=O)O (stereo not given) | 231 to 232 °C
CC(C)(C)OC(=O)N1Cc2cscc2C1 | 36 to 38 °C
COC(=O)C1CCSc2cc(OC)c(OC)cc2C1=O (stereo not given) | 132 to 133 °C
O=C(Nc1cccnc1)NC(NC(=O)c1ccc(Cl)cc1)C(Cl)(Cl)Cl (stereo not given) | 166 to 168 °C
COc1ccc(C(O)(c2ccc(OC)cc2)C2CCN(CCC3CN(C)C(=O)O3)CC2)cc1 (stereo not given) | 145 to 147 °C
CCOC(=O)c1sc(C(=O)OCC)c2c1OC=CCO2 | 198 to 200 °C
CC(=O)S[C@@H]1CCNC1=S | 98 to 100 °C
O=C(CCN1CCCC1)Nc1ccc2nc3ccc(NC(=O)CCN4CCCC4)cc3c(Cl)c2c1 | > 320 °C
Nc1ccc(Oc2ccc(C(=O)O)c(O)c2)cc1 | 187 to 188 °C
CC(C)N(CCNc1ccc([N+](=O)[O-])c2ccccc12)C(C)C | 63 to 64 °C
COC(=O)CCn1c(C(=O)NCC(=O)N(CC2CCCCC2)c2c(OC)cc(C)cc2OC)cc2ccccc21 | 68 °C
CN1C(=O)c2ccccc2CC1c1ccc(C(C)(C)C)cc1 (stereo not given) | 116 to 117 °C
CC(=O)c1nn(-c2c(Cl)cc(C(F)(F)F)cc2Cl)c(NSC(F)(F)F)c1S(C)=O (stereo not given) | 67 to 102 °C
CN(Cc1cc(C(F)(F)F)cc(C(F)(F)F)c1)C(=O)c1cnc(CC#N)nc1-c1ccccc1 | 114 to 116 °C
COc1cc(N)c(Cl)cc1C(=O)NC1CCN(CC2CCN(C(=O)N(C)C)CC2)CC1 | 124 to 126 °C
COC(=O)c1ccc(Cl)cc1NC(=O)Cc1cccc(C#Cc2ccccc2)c1 | 100 to 101 °C
COc1ccccc1C(=O)c1ccc(OC)c(Cl)c1Cl | 94 to 96 °C
CSc1c(Cl)c(O)nn1C | 163 to 165 °C
CCCCCCCCCCCCCCCCCC(=O)NC(C)Cc1cccc(C(F)(F)F)c1 (stereo not given) | 74 to 76 °C
c1ccc(N2CCN3C(NN4CCOCC4)=Nc4ccccc4N3CC2)cc1 | 142 to 144 °C
C=C(CCC(C)C1CCC2C3=C(C(=O)CC21C)C1(C)CCC(=O)C(C)C1CC3O)C(C)C(=O)O (stereo not given) | 196 to 198 °C

SMILES | melting point
Cc1c2c(c(C#N)c(=O)n1C)-c1ccccc1C2=O | 271 to 274 °C
Cc1ccc(-c2nnc3cc(-c4ccccc4)c(OCc4ncn(C)n4)nn23)cc1 | 219 to 220 °C
CCCCCCCc1ccc(OC(=O)c2ccc3c(c2N)C(=O)c2ccc(C)c([N+](=O)[O-])c2C3=O)cc1 | 257 to 259 °C
C=CCOC(=O)c1c(C)nc2c(cnn2CCCC#N)c1N | 86 °C
COC(=O)[C@@H]1C[C@H](OC(=O)c2cccnc2)C(=O)[C@H]2[C@@]1(C)CC[C@H]1C(=O)O[C@H](c3ccoc3)C[C@]21C | 200 to 204 °C
CCCCc1nc2cc[nH]c(=O)c2n1Cc1ccc(-c2ccccc2C#N)cc1 | 165 °C
CNc1cc(F)ccc1C(=O)CS(C)(=O)=O | 144 to 145 °C
COC(=O)c1sc(OC)c(C)c1O | 63 to 65 °C
CC(C(=O)O)c1ccc(-c2ccc(Cl)cc2F)c(O)c1 (stereo not given) | 145 to 149 °C
CCn1ncc2nc(C(=O)N3CCN(C)CC3)c(-c3ccccc3)nc21 | 170 to 171 °C
CSc1sc(C(=O)N2CCN(C)CC2)c2c1C(=O)CC(C)(C)C2 | 123 to 125 °C
Cc1sc(Nc2cccc(I)n2)nc1-c1cn[nH]c1 | > 260 °C
O=Cc1cccc2nnc(-c3ccccc3)cc12 | 156 to 157 °C
COc1ccc2c(c1)oc(=O)c1c3ccc(OC)cc3sc21 | 220 to 221 °C
Cc1nn2ccccc2c1SC#N | 111 to 113 °C
CCC(CC)(CC(=O)Nc1cccc(/C=C/c2cccc(COCCCCc3ccc(C)cc3)n2)c1)C(=O)O | 114 to 116 °C
Fc1ccc(Cn2c(NC3CCN(CCNCCc4c[nH]c5ccccc45)CC3)nc3ccccc32)cc1 | 170 °C
O=C1Cc2c(ccc3c(CCC4CCN(Cc5ccccc5)CC4)noc23)N1 | 188 to 189 °C
CCCCNc1nc(N(CCCC)C2CC(C)(C)N(OC3CCCCC3)C(C)(C)C2)nc(N(CCCC)C2CC(C)(C)N(OC3CCCCC3)C(C)(C)C2)n1 | 80 to 86 °C
CC(CCNC1=Nc2ccc(S(=O)(=O)N(C)C)c3cccc1c23)n1ccnc1 (stereo not given) | 221 to 222 °C
CCCCC[C@H]1CC[C@H](C=CCCc2ccc(O)cc2)CC1 | 89 to 90 °C
CN1CCC(c2c[nH]c3cnc(-n4cncn4)cc23)CC1 | 209 to 211 °C
CCOC(=O)n1nc2cc(Cl)ccc2c1N | 163 to 165 °C
OC1(c2cccn2Cc2ccccc2F)CCN(CCc2ccc(Cl)cc2)CC1 | 108 to 109 °C
COC(=O)c1ccc(-c2nc(-c3ccc(C(F)(F)F)cc3)no2)cc1 | 177 to 178 °C
